Assay [1] deals with sigma-binding site. Put plainly: 3H-DTG radioligand saturation binding (Scatchard plot) in submaxillary gland membrane homogenate. Details: species or system New Zealand white rabbits. To be noted: single binding site; membrane homogenate of acini cells from rabbit submaxillary gland; 4° C., 60 min; spiperone 25 nM. As to the method:
In this procedure, New Zealand white rabbits were sacrificed using 1/2-1 ml of Beuthanasia-D Special (Schering Plough Animal Health, Keniworth, N.J.: 390 mg pentobarital sodium and 50 mg phenytoin sodium per ml) by injecting the preparation into the marginal ear vein. Whole submaxillary glands, free of blood, were dissected and either used immediately or frozen in cold 100 mM tris-HCl (pH 7.4) buffer. Glandular tissue was rinsed with cold 50 mM Tris-HCl (pH 7.4) followed by homogenization for 30 sec (Polytron, Brinkman Instr., setting 7). The homogenate was centrifuged at 800 rpm for 10 min at 4° C. to remove extraneous tissue. Then the supernatant was centrifuged at 75,000 Xg for 15 min at 4° C. (model L8-55, Preparative Ultracentrifuge, Beckman Instruments, Fullerton, Calif.). Following centrifugation, the pellet was homogenized again in 100 mM tris-HCl buffer and centrifuged at 75,000 Xg for 15 min. The resulting pellet containing the membrane fragments was suspended in Tris-HCl buffer to yield a concentration of 250 mg (wet wt) per mL. […]
Spiperone (25 nM) was added to prevent binding to D2 dopamine or 5HT2 serotonin receptors. […] The filter, containing the precipitate, was transferred to a scintillation vial containing 1 mL of tissue solubilizer (Soluene 350, Packard Inst.) and 4 mL of scintillation fluid (Budget Solve , Fisher Scientific, Fair Lawn, N.J.) and counted (Beckman LS 3801). […]

In assay [2] the target is sigma receptors. Put plainly: Radioligand competition experiments in submaxillary gland membrane homogenate. Format: binding, New Zealand white rabbits. The following applies: radioligand 3H-DTG (5 nM); rabbit submaxillary gland membranes; 4° C., 60 minutes; spiperone 25 nM; mean ± spread; read-out: averaged IC50. On the technique in general: Displacement assays read how much labelled ligand stays bound in the presence of the test substance.
Protocol: In this procedure, New Zealand white rabbits were sacrificed using 1/2-1 ml of Beuthanasia-D Special (Schering Plough Animal Health, Keniworth, N.J.: 390 mg pentobarital sodium and 50 mg phenytoin sodium per ml) by injecting the preparation into the marginal ear vein. Whole submaxillary glands, free of blood, were dissected and either used immediately or frozen in cold 100 mM tris-HCl (pH 7.4) buffer. Glandular tissue was rinsed with cold 50 mM Tris-HCl (pH 7.4) followed by homogenization for 30 sec (Polytron, Brinkman Instr., setting 7). The homogenate was centrifuged at 800 rpm for 10 min at 4° C. to remove extraneous tissue. Then the supernatant was centrifuged at 75,000 Xg for 15 min at 4° C. (model L8-55, Preparative Ultracentrifuge, Beckman Instruments, Fullerton, Calif.). Following centrifugation, the pellet was homogenized again in 100 mM tris-HCl buffer and centrifuged at 75,000 Xg for 15 min. […]
Spiperone (25 nM) was added to prevent binding to D2 dopamine, or 5HT2 serotonin receptors. […] The filter along with the adhering precipitate was transferred to a scintillation vial containing 1 mL of tissue solubilizer (Soluene 350, Packard Inst., Downers Grove, Ill.) and 4 mL of scintillation fluid (Budget Solve , Fisher Scientific, Fair Lawn, N.J.) and counted (Beckman LS 3801). […] Specific binding was determined by subtracting NSB from total binding. […]

Assay [3] concerns salivary secretion. Nature of the assay: Saliva flow observed after topical dosing of the rabbit eye. In kind it is in vivo. The following applies: rabbit eye dosed topically (use as dry eye syndrome treatment). The source says:
The observations of effective salivary stimulation actually occurred during use of the most preferred compound wherein N=2, and R and R" are methyl, as dry eye syndrome treatment. […] This led to further investigations of this and other compounds as a means of treating dry mouth associated with, for example, Sjogren's syndrome. The present compound for example could be formulated into a conventional lozenge for a topical application directly in the oral cavity to stimulate saliva flow. Such lozenges can either be made by dissolving the drug in water, adding powdered sugar, flavor and a gum (e.g., 7% powdered acacia) to give sufficient adhesiveness. This type of lozenge is harder than a conventional tablet, but dissolves slowly. The lozenge formulation is made by compressing the formula on a tablet press according to the art.

As a reminder, the Kd is the free concentration of one partner at which half of the binding sites on the other are occupied at equilibrium, for simple one-to-one binding. For `Cc1ccccc1NC(=N)Nc1ccccc1C` [3H-DTG], in assay [1], the Kd turned out to be 6 ± 1.2 nM.

The term IC50 denotes the midpoint of a concentration-inhibition curve. Regarding `CN(Cc1cc(Br)cc(Br)c1N)C1CCCCC1` [bromhexine], in assay [2], the IC50 stood at 690 ± 276 nM.

With `CN(C)CCc1ccccc1` [most preferred compound, N,N-dimethyl-2-phenylethylamine], in assay [3], the saliva flow entry is listed as “copious amounts of saliva flowed from about one half of the rabbits”.

For the origin of these results see patent US5387614A, “Use of sigma receptor ligands as salivary gland stimulants” (University of Iowa Research Foundation, priority 1993, dated 1995).
